Source: patent US8163756B2 (priority 2004, dated 2012)

Tests used:
Type in all cases: biochemical
[1] = biological target: T1, KDR kinase (Homo sapiens, UniProt P35968, DEL940-989/E990V); assay: KDR kinase assay K2 (as K1, 2.1 nM enzyme, 2 h pre-incubation, 1.0 mM ATP); details: Method K2
Protocol: (§1) IC50 values were calculated from a series of percent inhibition values determined at a range of inhibitor concentrations using software routines as implemented in the GraphPad Prism software package.

[2] = biological target: T2, phosphorylated p-38-alpha kinase (Homo sapiens, UniProt Q16539); assay: P-38 alpha kinase assay P2 (as P1, not pre-incubated); details: method P2 (not pre-incubated)
Protocol: Same as assay P1 except that (1) the reaction was not pre-incubated.

[3] = biological target: T3, Abl kinase (Homo sapiens, UniProt P00519); assay: Abl kinase assay A1 (pyruvate kinase/lactate dehydrogenase coupled, spectrophotometric); details: Method A1
T3 sequence (P00519 229-512): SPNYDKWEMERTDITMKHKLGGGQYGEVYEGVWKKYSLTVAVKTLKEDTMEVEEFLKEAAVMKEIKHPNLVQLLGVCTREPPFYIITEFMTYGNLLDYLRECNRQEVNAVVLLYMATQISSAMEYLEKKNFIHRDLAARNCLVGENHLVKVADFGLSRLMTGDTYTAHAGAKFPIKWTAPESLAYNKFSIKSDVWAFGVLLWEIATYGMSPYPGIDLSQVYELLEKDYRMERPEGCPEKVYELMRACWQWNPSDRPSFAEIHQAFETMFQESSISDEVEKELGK
Protocol: as §1

[4] = biological target: T4, B-Raf(V599E) kinase (Homo sapiens, UniProt P15056, V600E); assay: B-Raf(V599E) kinase assay B1 (construct 1, MEK1 substrate, coupled spectrophotometric)
Protocol: (§2) The test compounds were incubated with the reaction mixtureat 30° C. for 2 h. […] The reaction rate was calculated using the […] time frame. […] IC50 values were calculated from a series of percent inhibition values determined at a range of inhibitor concentrations using software routines as implemented in the GraphPad Prism software package.
Target sequence in this assay (P15056 with tags, fused parts or gaps V600E): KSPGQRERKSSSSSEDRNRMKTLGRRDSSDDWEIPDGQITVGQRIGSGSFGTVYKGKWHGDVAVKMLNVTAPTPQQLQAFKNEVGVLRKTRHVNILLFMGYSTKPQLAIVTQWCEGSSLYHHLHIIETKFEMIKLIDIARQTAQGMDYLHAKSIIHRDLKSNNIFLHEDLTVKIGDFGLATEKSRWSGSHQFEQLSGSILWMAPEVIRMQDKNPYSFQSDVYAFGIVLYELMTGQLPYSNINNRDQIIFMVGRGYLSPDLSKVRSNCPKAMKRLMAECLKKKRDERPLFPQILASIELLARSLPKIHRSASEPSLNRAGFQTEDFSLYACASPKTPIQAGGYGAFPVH

[5] = biological target: T1, KDR kinase; assay: KDR kinase assay K1 (pyruvate kinase/lactate dehydrogenase coupled, spectrophotometric); details: Method K1; read-out: KDR Data (IC50)
Protocol: as §1

[6] = biological target: T4, B-Raf(V599E) kinase; assay: B-Raf(V599E) kinase assay B2 (construct 2 at 2 nM, 1 h pre-incubation)
Protocol: as §2
Target sequence in this assay (P15056 433-726 V600E): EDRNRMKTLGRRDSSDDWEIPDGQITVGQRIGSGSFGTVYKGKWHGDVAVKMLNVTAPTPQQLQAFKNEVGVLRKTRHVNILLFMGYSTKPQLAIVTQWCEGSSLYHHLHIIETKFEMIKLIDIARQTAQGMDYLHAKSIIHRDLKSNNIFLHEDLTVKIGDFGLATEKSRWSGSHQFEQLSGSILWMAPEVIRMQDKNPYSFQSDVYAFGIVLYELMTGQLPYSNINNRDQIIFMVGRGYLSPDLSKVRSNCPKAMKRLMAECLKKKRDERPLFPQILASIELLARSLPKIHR
Same as assay B1 except that (1) construct 2 was employed at a nominal concentration of 2 nM (2) the reaction was pre-incubated at 30° C. for 1 h prior to initiation with ATP (3) a reading time frame of 0.5 h to 1.5 h.

[7] = biological target: T3, Abl kinase; assay: Abl kinase assay A2 (as A1, 1.1 nM enzyme, 2 h pre-incubation, 0.5 mM ATP); details: Method A2; read-out: Abl Data (IC50)
Protocol: as §1

[8] = biological target: T2, phosphorylated p-38-alpha kinase; assay: P-38 alpha kinase assay P1 (coupled spectrophotometric, 2 h pre-incubation); details: method P1 (2 h pre-incubation); read-out: P-38 Data

T1 sequence (P35968 with tags, fused parts or gaps DEL940-989/E990V): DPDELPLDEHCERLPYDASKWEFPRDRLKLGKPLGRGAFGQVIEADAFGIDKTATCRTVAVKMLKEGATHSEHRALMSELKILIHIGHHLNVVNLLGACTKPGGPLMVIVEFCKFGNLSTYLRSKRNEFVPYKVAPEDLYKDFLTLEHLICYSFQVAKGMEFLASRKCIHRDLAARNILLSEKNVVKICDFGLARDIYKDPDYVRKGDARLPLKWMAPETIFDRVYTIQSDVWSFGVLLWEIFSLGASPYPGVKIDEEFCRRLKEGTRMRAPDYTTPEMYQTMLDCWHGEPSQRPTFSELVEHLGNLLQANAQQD
T2 sequence (Q16539 1-360 isoform Q16539-2): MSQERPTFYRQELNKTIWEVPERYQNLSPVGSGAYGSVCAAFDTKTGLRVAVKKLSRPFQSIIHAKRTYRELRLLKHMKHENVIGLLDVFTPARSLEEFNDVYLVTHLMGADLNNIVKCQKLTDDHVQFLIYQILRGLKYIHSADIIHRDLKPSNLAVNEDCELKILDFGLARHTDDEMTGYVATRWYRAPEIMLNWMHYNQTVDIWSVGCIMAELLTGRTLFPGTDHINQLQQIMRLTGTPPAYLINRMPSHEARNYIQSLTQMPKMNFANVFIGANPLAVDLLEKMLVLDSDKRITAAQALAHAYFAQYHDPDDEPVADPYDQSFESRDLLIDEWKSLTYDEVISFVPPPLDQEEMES

SMILES: CC(C)(C)c1cc(NC(=O)Nc2cccc(Br)c2)n(-c2cccc(C#N)c2)n1 [Example 5, 1-(3-t-butyl-1-(3-cyanophenyl)-1H-pyrazol-5-yl)-3-(3-bromophenyl)urea]
- IC50 ([1]; read-out: KDR Data (IC50)): 0.85 µM
- IC50 [2]: 0.038 µM
- IC50 ([3]; read-out: Abl Data (IC50)): 2 µM
- IC50 [4]: 0.087 µM

SMILES: CC(C)(C)c1cc(NC(=O)Nc2cccc(Cl)c2)n(-c2cccc(C#N)c2)n1 [Example 8, 1-(3-t-butyl-1-(3-cyanophenyl)-1H-pyrazol-5-yl)-3-(3-chlorophenyl)urea]
- inhibition at 10 µM ([1]; @ 10 μM, read-out: KDR Data (percent inhibition)): 96%
- IC50 [2]: 0.025 µM
- inhibition at 10 µM ([3]; @ 10 μM, read-out: Abl Data (percent inhibition)): 81%

SMILES: CC(C)(C)c1cc(NC(=O)Nc2cccc(Oc3cccnc3)c2)n(-c2ccc3c(c2)CC(C(=O)O)NC3)n1 (stereo not shown) [Example 189, 6-(3-t-butyl-5-(3-(3-(pyridin-3-yloxy)phenyl)ureido)-1H-pyrazol-1-yl)-1,2,3,4-tetrahydroisoquinoline-3-carboxylic acid]
- IC50 [5]: 0.023 µM
- IC50 [6]: 0.918 µM
- IC50 [7]: 0.003 µM

SMILES: CC(C)(C)c1cc(NC(=O)Nc2cccc(Cl)c2Cl)n(-c2ccc3nc[nH]c(=O)c3c2)n1 [Example 195, 1-(3-t-butyl-1-(4-oxo-3,4-dihydroquinazolin-6-yl)-1H-pyrazol-5-yl)-3-(2,3-dichlorophenyl)urea]
- IC50 [6]: 0.298 µM
- IC50 [8]: 0.046 µM
- IC50 [7]: 0.91 µM

SMILES: Cn1c(=O)c(-c2cccc(NC(=O)Nc3cc(C(C)(C)C)nn3-c3ccc4c(c3)CCN4S(C)(=O)=O)c2)cc2cncnc21 [Example 197, 1-(3-t-butyl-1-(1-(methylsulfonyl)indolin-5-yl)-1H-pyrazol-5-yl)-3-(3-(8-methyl-7-oxo-7,8-dihydropyrido[2,3-d]pyrimidin-6-yl)phenyl)urea]
- IC50 [6]: 0.027 µM
- IC50 [8]: 0.028 µM
- IC50 [7]: 0.012 µM
